According to article PMC5939190, “The impact of O-glycan chemistry on the stability of intrinsically disordered proteins” (Chemical Science, 2018):
Residues, ends and D or L forms follow the SMILES beside them. No end group written: not given here. *: point of attachment. αMan = OC[C@H]1O[C@H](*)[C@@H](O)[C@@H](O)[C@@H]1O; X2 = OC[C@H]1O[C@H](*)[C@H](O)[C@@H](O)[C@@H]1O; X1 = OC[C@H]1O[C@H](*)[C@H](O)[C@@H](O)[C@H]1O

What was measured:
thermolysin = target: T1, thermolysin (Bacillus thermoproteolyticus, UniProt P00800); experiment: Thermolysin digestion of linker variants (half-life to thermolysin degradation, MALDI-TOF MS); format: in vitro ADME; settings: for half-life: thermolysin in digestion buffer, average ± spread of three independent trials, quantitative MALDI-TOF MS; for half-life / Half-life to thermolysin degradation, Trial 1 / Half-life to thermolysin degradation, Trial 2 / Half-life to thermolysin degradation, Trial 3: thermolysin 1 µg/µL (25 µL) added to linker 2 µg/µL (25 µL), 50 mM Tris·HCl, 0.5 mM CaCl2, pH 8.0, 37 °C, aliquots 0-420 min; for half-life / Half-life to thermolysin degradation, Trial 2 / Half-life to thermolysin degradation, Trial 3: first-order exponential decay fit; for Half-life to thermolysin degradation, Trial 1: trial 1 of three independent trials, first-order exponential decay fit of full-length linker; for Half-life to thermolysin degradation, Trial 1 / Half-life to thermolysin degradation, Trial 2 / Half-life to thermolysin degradation, Trial 3: quantitative MALDI-TOF MS with internal standard; for Half-life to thermolysin degradation, Trial 2: trial 2 of three independent trials; for Half-life to thermolysin degradation, Trial 3: trial 3 of three independent trials
T1 sequence (P00800 233-548): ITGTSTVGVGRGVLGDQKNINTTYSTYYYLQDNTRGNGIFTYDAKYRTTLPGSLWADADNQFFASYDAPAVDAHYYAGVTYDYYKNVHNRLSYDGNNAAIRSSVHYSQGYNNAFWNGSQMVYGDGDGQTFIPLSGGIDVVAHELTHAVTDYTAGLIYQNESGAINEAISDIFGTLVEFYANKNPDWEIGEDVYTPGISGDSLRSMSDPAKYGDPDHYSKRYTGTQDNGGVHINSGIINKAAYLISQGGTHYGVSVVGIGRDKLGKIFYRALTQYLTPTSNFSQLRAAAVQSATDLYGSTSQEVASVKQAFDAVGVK
Source text: O-Mannosylation is strongly preferred for proteolysis protection of a model fungal IDP. To investigate how glycan identity affects IDP proteolytic stability, we employed the naturally O-mannosylated linker from the Trichoderma reesei glycoside hydrolase family 7 cellobiohydrolase, TrCel7A, as a model.[10] This enzyme is one of the most important industrial cellulases and its linker is a well-studied O-mannosylated IDP.[11]–[14] The α-anomeric configuration was chosen since it is the only type reported so far in reducing terminal mannose residues of O-mannosylated proteins from fungi and yeasts.[8] We used […] glycopeptide synthesis[12],[15],[16] to produce four variants (Fig. 1), including the non-glycosylated linker, and measured the half-life to thermolysin degradation with MALDI-TOF MS (Fig. S1–S4 ^†).[15]–[19] […]
1.1. Experimental material and equipm ent
All commercial reagents and solvents were used as received. All LC-MS analyses were performed using a Waters Acquity TM Ultra Performance LC system equipped with Acquity UPLC® BEH 300 C4, 1.7µm, 2.1 x 100 mm column at flow rates of 0.3 mL/min. The mobile phase for LC -MS analysis was a mixture of H2O (0.1% formic acid, v /v, A) and acetonitrile (0.1% formic acid, v/v, B). […]
Mass spectrometric analysis done with a Waters SYNAPT G2-S LC-MS system was us ed to confirm the identity and homogeneity of the synthetic peptides. MALDI-TOF mas s spectrometr ic analysis done with an AB/Sciex Voyager DE-STR system was used to determine the proteolytic stability (half-life to thermolysin degradation) of the synthetic peptides (Fig. S1-S4). […]
1.3. General procedure for the thermolysin digestion of linker variants The thermolysin digestions were performed following previously described procedures.2 The digestion s of glycosylated linkers were carried out at 37 °C in 25 µL of digestion buffer (50 mM Tris·HCl buffer, 0.5 mM CaCl2, pH 8.0) with an initial linker concentration of 2 µg/µL. 25 µL of thermolysin (1 µg/µL in the digestion buffer) was added to linker solution; 1 µL aliquots were taken at specific time intervals (0, […]
µL of acetonitrile/H2O/AcOH (20/20/1, v/v) and 3 µL of standard solution [0.17 µg/µL non-glycosylated linker in acetonitrile/H2O/AcOH (20/20/1, v/v)]. Each sample was analyzed by quantitative MALDI-TOF MS to calculate the change in concentration of glycosylated linkers with time. The digestion rate was determined by monitoring and fitting data to the first-order exponential decay of the full-length glycosylated linkers over time. Digestion and analysis of non-glycosylat ed linker was done exactly a s described above for glycosylated linkers except that the Lman was used as the internal standard. All the digestion processes were repeated for three independent trials.
1.4. Temperature replica exchange simulations
Model syst ems. This work compares the dynamical and structural behavior of four variants of the Cel7A linker from Trichoderma reesei (TrCel7A). This set includes the non-glycosylated linker and the linker homogeneously decorated with O-linked α-mannosyl, α-glucosyl, and α-galactosyl moieties (Fig. S9A).
Complementary simulations and analyses were also performed with the linker decorated with longer glycans comprising mannobiosyl and galactobiosyl moieties, as well as with the putative natural decoration proposed by Harrison et al.3 (Fig. S9B) . A set of four variants of the “PT linker” was also studied, including the non -glycosylated linker and the variants with the same three glycans (Fig. S9C).
Finally, we also performed simulations of tripeptides with a single site of glyco sylation, resulting in the […]

Row | Molecule | half-life (thermolysin) [min] | Half-life to thermolysin degradation, Trial 1 (thermolysin) [min] | Half-life to thermolysin degradation, Trial 2 (thermolysin) [min] | Half-life to thermolysin degradation, Trial 3 (thermolysin) [min] | enhancement of protection against proteolysis relative to non-glycosylated parent IDP [fold] | Improvement of proteolytic stability over the non-glycosylated linker LNG (thermolysin; ratio of half-lives to thermolysin degradation, relative to LNG) [fold] | Proteolysis protection over the O-galactosylated linker (Lgal) (thermolysin; ratio of half-lives to thermolysin degradation, relative to Lgal) [fold] | Proteolysis protection over the O-glucosylated linker (Lglc) (thermolysin; ratio of half-lives to thermolysin degradation, relative to Lglc) [fold]
1 | C[C@H](NC(=O)[C@@H]1CCCN1C(=O)[C@H](CCCNC(=N)N)NC(=O)[C@H](CCCNC(=N)N)NC(=O)[C@@H](NC(=O)[C@@H](NC(=O)[C@@H](NC(=O)[C@@H](NC(=O)CNC(=O)[C@@H]1CCCN1C(=O)[C@@H]1CCCN1C(=O)[C@H](CC(N)=O)NC(=O)CNC(=O)CNC(=O)[C@@H]1CCCN1C(=O)[C@@H]1CCCN1C(=O)[C@H](CC(N)=O)NC(=O)CN)[C@@H](C)O[C@H]1O[C@H](CO)[C@H](O)[C@H](O)[C@H]1O)[C@@H](C)O[C@H]1O[C@H](CO)[C@H](O)[C@H](O)[C@H]1O)[C@@H](C)O[C@H]1O[C@H](CO)[C@H](O)[C@H](O)[C@H]1O)[C@@H](C)O[C@H]1O[C@H](CO)[C@H](O)[C@H](O)[C@H]1O)C(=O)N[C@H](C(=O)N[C@H](C(=O)N[C@H](C(=O)NCC(=O)N[C@@H](CO[C@H]1O[C@H](CO)[C@H](O)[C@H](O)[C@H]1O)C(=O)N[C@@H](CO[C@H]1O[C@H](CO)[C@H](O)[C@H](O)[C@H]1O)C(=O)N1CCC[C@H]1C(=O)NCC(=O)N1CCC[C@H]1C(=O)O)[C@@H](C)O[C@H]1O[C@H](CO)[C@H](O)[C@H](O)[C@H]1O)[C@@H](C)O[C@H]1O[C@H](CO)[C@H](O)[C@H](O)[C@H]1O)[C@@H](C)O[C@H]1O[C@H](CO)[C@H](O)[C@H](O)[C@H]1O [Lgal] (H-GNPPGGNPPGT(X1)T(X1)T(X1)T(X1)RRPAT(X1)T(X1)T(X1)GS(X1)S(X1)PGP-OH; N-terminus and C-terminus assumed) | 9.8 ± 2 | 8.5 | 8.8 | 12.1 | 10 | – | – | –
2 | C[C@H](NC(=O)[C@@H]1CCCN1C(=O)[C@H](CCCNC(=N)N)NC(=O)[C@H](CCCNC(=N)N)NC(=O)[C@@H](NC(=O)[C@@H](NC(=O)[C@@H](NC(=O)[C@@H](NC(=O)CNC(=O)[C@@H]1CCCN1C(=O)[C@@H]1CCCN1C(=O)[C@H](CC(N)=O)NC(=O)CNC(=O)CNC(=O)[C@@H]1CCCN1C(=O)[C@@H]1CCCN1C(=O)[C@H](CC(N)=O)NC(=O)CN)[C@@H](C)O[C@H]1O[C@H](CO)[C@@H](O)[C@H](O)[C@H]1O)[C@@H](C)O[C@H]1O[C@H](CO)[C@@H](O)[C@H](O)[C@H]1O)[C@@H](C)O[C@H]1O[C@H](CO)[C@@H](O)[C@H](O)[C@H]1O)[C@@H](C)O[C@H]1O[C@H](CO)[C@@H](O)[C@H](O)[C@H]1O)C(=O)N[C@H](C(=O)N[C@H](C(=O)N[C@H](C(=O)NCC(=O)N[C@@H](CO[C@H]1O[C@H](CO)[C@@H](O)[C@H](O)[C@H]1O)C(=O)N[C@@H](CO[C@H]1O[C@H](CO)[C@@H](O)[C@H](O)[C@H]1O)C(=O)N1CCC[C@H]1C(=O)NCC(=O)N1CCC[C@H]1C(=O)O)[C@@H](C)O[C@H]1O[C@H](CO)[C@@H](O)[C@H](O)[C@H]1O)[C@@H](C)O[C@H]1O[C@H](CO)[C@@H](O)[C@H](O)[C@H]1O)[C@@H](C)O[C@H]1O[C@H](CO)[C@@H](O)[C@H](O)[C@H]1O [Lglc] (H-GNPPGGNPPGT(X2)T(X2)T(X2)T(X2)RRPAT(X2)T(X2)T(X2)GS(X2)S(X2)PGP-OH; N-terminus and C-terminus assumed) | 53.7 ± 8.1 | 53.3 | 62.0 | 45.9 | – | – | – | –
3 | C[C@H](NC(=O)[C@@H]1CCCN1C(=O)[C@H](CCCNC(=N)N)NC(=O)[C@H](CCCNC(=N)N)NC(=O)[C@@H](NC(=O)[C@@H](NC(=O)[C@@H](NC(=O)[C@@H](NC(=O)CNC(=O)[C@@H]1CCCN1C(=O)[C@@H]1CCCN1C(=O)[C@H](CC(N)=O)NC(=O)CNC(=O)CNC(=O)[C@@H]1CCCN1C(=O)[C@@H]1CCCN1C(=O)[C@H](CC(N)=O)NC(=O)CN)[C@@H](C)O[C@H]1O[C@H](CO)[C@@H](O)[C@H](O)[C@@H]1O)[C@@H](C)O[C@H]1O[C@H](CO)[C@@H](O)[C@H](O)[C@@H]1O)[C@@H](C)O[C@H]1O[C@H](CO)[C@@H](O)[C@H](O)[C@@H]1O)[C@@H](C)O[C@H]1O[C@H](CO)[C@@H](O)[C@H](O)[C@@H]1O)C(=O)N[C@H](C(=O)N[C@H](C(=O)N[C@H](C(=O)NCC(=O)N[C@@H](CO[C@H]1O[C@H](CO)[C@@H](O)[C@H](O)[C@@H]1O)C(=O)N[C@@H](CO[C@H]1O[C@H](CO)[C@@H](O)[C@H](O)[C@@H]1O)C(=O)N1CCC[C@H]1C(=O)NCC(=O)N1CCC[C@H]1C(=O)O)[C@@H](C)O[C@H]1O[C@H](CO)[C@@H](O)[C@H](O)[C@@H]1O)[C@@H](C)O[C@H]1O[C@H](CO)[C@@H](O)[C@H](O)[C@@H]1O)[C@@H](C)O[C@H]1O[C@H](CO)[C@@H](O)[C@H](O)[C@@H]1O [Lman] (H-GNPPGGNPPGT(αMan)T(αMan)T(αMan)T(αMan)RRPAT(αMan)T(αMan)T(αMan)GS(αMan)S(αMan)PGP-OH; N-terminus and C-terminus assumed) | 164 ± 32.9 | 163.9 | 196.4 | 130.5 | – | 112 | 16 | 3
4 | GNPPGGNPPGTTTTRRPATTTGSSPGP-OH [LNG] | 1.5 ± 0.2 | 1.6 | 1.5 | 1.2 | – | – | – | –
